The subject of assay [1] is Staphylococcus aureus. The assay is described as follows: Antibacterial activity against methicillin-resistant Staphylococcus aureus ATCC BAA-44 assessed as reduction of oxacillin MIC at 25% MIC by broth microdilution method relative to oxacillin-treated control. It counts as functional. In general terms: Dilution methods test growth across graded concentrations, often in twofold steps.

In assay [2] the test system is Staphylococcus aureus. The assay is described as follows: Antibacterial activity against methicillin-resistant Staphylococcus aureus ATCC BAA-44 assessed as dispersion of preformed biofilm after 24 hrs by crystal violet reporter assay. It counts as functional, organism-based. As to conditions: ATCC BAA-44, 24 h. Background: A reporter such as luciferase makes a cellular process visible.

The subject of assay [3] is Acinetobacter baumannii. The assay is described as follows: Antibacterial activity against multidrug-resistant Acinetobacter baumannii ATCC BAA-1605 assessed as inhibition of biofilm growth after 24 hrs by crystal violet reporter assay. It counts as functional, organism-based. As to conditions: for pIC50: Acinetobacter baumannii, ATCC BAA-1605, 24 h, read-out: IC50.
Assay [4] concerns Staphylococcus aureus. The assay is described as follows: Antibacterial activity against methicillin-resistant Staphylococcus aureus ATCC BAA-44 assessed as inhibition of biofilm growth after 24 hrs by crystal violet reporter assay. It counts as functional, organism-based. The settings on record: ATCC BAA-44, 24 h.
Assay [5] concerns Acinetobacter baumannii. The assay is described as follows: Antibacterial activity against multidrug-resistant Acinetobacter baumannii ATCC BAA-1605 assessed as growth inhibition by broth microdilution method. It counts as functional.
Assay [6] concerns Staphylococcus aureus. The assay is described as follows: Antibacterial activity against methicillin-resistant Staphylococcus aureus ATCC BAA-44 assessed as growth inhibition by broth microdilution method. It counts as functional.

SMILES strings stand for the structures. pEC50, pIC50: −log10 of the molar value. A value given as a limit tells only on which side of the number the result lay.

As for `CCCCCc1ccc(C(=O)NCCn2cc(CCCCCc3c[nH]c(N)n3)nn2)cc1.Cl`, the “fold change (FC)” value in the assay on Staphylococcus aureus [1] is on record as 4.

In the case of `CCCCCc1ccc(C(=O)NCCn2cc(CCCCCc3cn(CCc4ccccc4)c(N)n3)nn2)cc1.Cl`, the “fold change (FC)” value in the assay on Staphylococcus aureus [1] is listed as 0. In addition, in the assay on Staphylococcus aureus [2], the pEC50 was 4.48. For the same molecule, the results for the negative logarithm of the IC50 (pIC50) in the assay with Acinetobacter baumannii [3] and in the assay on Staphylococcus aureus [4] were 4.41 and 5.00, respectively. In addition, the minimum inhibitory concentration (MIC) in the assay on Acinetobacter baumannii [5] came out at 100 µM; with Staphylococcus aureus [6], 25 µM.

In the case of `CCCCCc1ccc(C(=O)NCCn2cc(CCCCCc3cn(Cc4ccccc4)c(N)n3)nn2)cc1.Cl`, in the assay with Staphylococcus aureus [1], the “fold change (FC)” value is 0. Besides, in the assay on Staphylococcus aureus [2], the pEC50 is 4.40. In addition, the pIC50 with Acinetobacter baumannii [3] was 4.47; with Staphylococcus aureus [4] it was 5.15. The minimal inhibitory concentration (MIC) with Acinetobacter baumannii [5] is 100 µM; with Staphylococcus aureus [6], 12.5 µM.

Take `CCCCCc1ccc(C(=O)NCCn2cc(CCCCCc3cn(-c4ccccc4)c(N)n3)nn2)cc1.Cl`: the “fold change (FC)” value in the assay with Staphylococcus aureus [1] is listed as 0. Besides, the pIC50 was 4.30 in the assay with Acinetobacter baumannii [3] and 4.60 in the assay on Staphylococcus aureus [4]. In addition, the MIC is more than 200 µM in the assay on Acinetobacter baumannii [5] and 25 µM in the assay with Staphylococcus aureus [6].

As for `CCCCCCn1cc(CCCCCc2cn(CCNC(=O)c3ccc(CCCCC)cc3)nn2)nc1N.Cl`, the “fold change (FC)” value with Staphylococcus aureus [1] turned out to be 0. In addition, the negative-log EC50 (pEC50) with Staphylococcus aureus [2] is 4.39. In addition, the pIC50 was 4.58 in the assay on Acinetobacter baumannii [3] and 5.21 with Staphylococcus aureus [4]. Moreover, the MIC was 100 µM in the assay on Acinetobacter baumannii [5] and 12.5 µM with Staphylococcus aureus [6].

As for `CCCCCc1ccc(C(=O)NCCn2cc(CCCCCc3cn(CCCCC)c(N)n3)nn2)cc1.Cl`, the “fold change (FC)” value with Staphylococcus aureus [1] is 0. In the assay on Staphylococcus aureus [2], the pEC50 was 4.35. Moreover, the negative-log IC50 (pIC50) in the assay with Acinetobacter baumannii [3] was 4.50; in the assay with Staphylococcus aureus [4] it was 5.38. Besides, the MIC with Acinetobacter baumannii [5] amounted to 100 µM; in the assay on Staphylococcus aureus [6] it was 12.5 µM.

In the case of `CCCCCc1ccc(C(=O)NCCn2cc(CCCCCc3cn(CCCC)c(N)n3)nn2)cc1.Cl`, the “fold change (FC)” value in the assay with Staphylococcus aureus [1] was 0. Moreover, the values for the pIC50 in the assay on Acinetobacter baumannii [3] and with Staphylococcus aureus [4] were 4.27 and 4.97, respectively. Also, the MIC turned out to be 100 µM in the assay with Acinetobacter baumannii [5] and 25 µM in the assay with Staphylococcus aureus [6].

With `C=CCn1cc(CCCCCc2cn(CCNC(=O)c3ccc(CCCCC)cc3)nn2)nc1N.Cl`, the “fold change (FC)” value with Staphylococcus aureus [1] came out at 2. Moreover, the IC50 entry with Acinetobacter baumannii [3] is reported as “ND(toxic)”. Besides, in the assay on Staphylococcus aureus [4], the negative-log IC50 (pIC50) is 4.88. The MIC with Acinetobacter baumannii [5] came to 200 µM; with Staphylococcus aureus [6] it was 50 µM.

Regarding `CCCCCc1ccc(C(=O)NCCn2cc(CCCCCc3cn(CC(C)C)c(N)n3)nn2)cc1.Cl`, the “fold change (FC)” value in the assay on Staphylococcus aureus [1] was determined as 4. The pIC50 in the assay on Acinetobacter baumannii [3] was 4.01; with Staphylococcus aureus [4], 4.62. For the same molecule, the figures for the minimum inhibitory concentration (MIC) in the assay with Acinetobacter baumannii [5] and with Staphylococcus aureus [6] were 200 µM and 50 µM, respectively.

In the case of `CCCCCc1ccc(C(=O)NCCn2cc(CCCCCc3cn(C(C)C)c(N)n3)nn2)cc1.Cl`, in the assay on Staphylococcus aureus [1], the “fold change (FC)” value is 0. Besides, in the assay on Acinetobacter baumannii [3], the IC50 result is “ND(toxic)”. In the assay with Staphylococcus aureus [4], the pIC50 was less than 4.00. The MIC was more than 200 µM in the assay on Acinetobacter baumannii [5] and 200 µM in the assay on Staphylococcus aureus [6].

Regarding `CCCCCc1ccc(C(=O)NCCn2cc(CCCCCc3cn(C4CCCCC4)c(N)n3)nn2)cc1.Cl`, in the assay with Staphylococcus aureus [1], the “fold change (FC)” value was determined as 2. Also, the IC50 result in the assay on Acinetobacter baumannii [3] is “ND(toxic)”. For the same molecule, in the assay with Staphylococcus aureus [4], the pIC50 was 4.73. Moreover, the values for the minimum inhibitory concentration (MIC) with Acinetobacter baumannii [5] and in the assay on Staphylococcus aureus [6] were 200 µM and 25 µM, respectively.

Take `CCCCCc1ccc(C(=O)NCCn2cc(CCCCCc3cn(C4CCCC4)c(N)n3)nn2)cc1.Cl`: the “fold change (FC)” value with Staphylococcus aureus [1] was determined as 2. Also, the pEC50 in the assay with Staphylococcus aureus [2] was 4.46. Also, the pIC50 was 4.47 in the assay on Acinetobacter baumannii [3] and 5.05 in the assay with Staphylococcus aureus [4]. Further, the minimal inhibitory concentration (MIC) worked out at 100 µM in the assay with Acinetobacter baumannii [5] and 25 µM in the assay on Staphylococcus aureus [6].

`CCCCCc1ccc(C(=O)NCCn2cc(CCCCCc3cn(C4CC4)c(N)n3)nn2)cc1.Cl`: the “fold change (FC)” value with Staphylococcus aureus [1] was 2. The IC50 result with Acinetobacter baumannii [3] is given as “ND(toxic)”. In the assay with Staphylococcus aureus [4], the pIC50 is less than 4.00. For the same molecule, the minimal inhibitory concentration (MIC) in the assay on Acinetobacter baumannii [5] was more than 200 µM; in the assay on Staphylococcus aureus [6], 100 µM.

The pEC50 is −log10 of the EC50, conventionally taken in molar units. By pIC50 is commonly meant −log10 of the IC50, conventionally taken in molar units. The MIC is the lowest concentration found to suppress growth.

These data come from ChEMBL document CHEMBL2331213, “A flexible approach to 1,4-di-substituted 2-aminoimidazoles that inhibit and disperse biofilms and potentiate the effects of β-lactams against multi-drug resistant bacteria” (Eur J Med Chem, 2013).
